Source: DBAASP
Values after ≈ are worked out from the molar mass of the structure shown. Values belong to the molecule of their own block, whether it stands above or below them.

Legend:
Assay in all cases: ≥ marks a high value that may be exact or a test limit, other limits are often not marked, values filed in µg/mL are converted to µM
[1] = test system: Streptococcus pneumoniae DSM 11865
[2] = test system: Staphylococcus aureus ATCC 25923
[3] = test system: Klebsiella pneumoniae DSM 681
[4] = test system: Pseudomonas aeruginosa DSM 1128
[5] = test system: Escherichia coli DSM 1103
[6] = test system: Escherichia coli DH5alpha
[7] = test system: Staphylococcus aureus ATCC 9144
[8] = test system: Escherichia coli ATCC 10536
[9] = test system: Bacillus subtilis ATCC 6633
[10] = test system: Xanthomonas vesicatoria DSM 50861
[11] = test system: Pseudomonas corrugata DSM 7228
[12] = test system: Pseudomonas syringae pv. tomato DC3000
Alternaria alternata = test system: Alternaria alternata
[13] = test system: Pseudomonas syringae pv. syringae DSM 10604
[14] = test system: Clavibacter michiganensis subsp. michiganensis DSM 46294
Cladosporium herbarum = test system: Cladosporium herbarum
[15] = test system: Pectobacterium carotovorum subsp. carotovorum DSM 30168
Botrytis cinerea = test system: Botrytis cinerea
[16] = test system: Staphylococcus aureus FDA 209P
[17] = test system: Escherichia coli IFO 3972
[18] = test system: Erwinia amylovora PMV 6076
[19] = test system: Pseudomonas syringae pv. syringae EPS 94
[20] = test system: Xanthomonas fragariae Xf349-9A
[21] = test system: Xanthomonas campestris pv. Vesicatoria 2133-2
[22] = test system: Xanthomonas arboricola pv. pruni CFBP 5563
[23] = test system: Pseudomonas syringae pv. actinidiae Psa3700.1.1
Escherichia coli K91BK = test system: Escherichia coli K91BK
[24] = test system: Bacillus subtilis var. niger ATCC 9372
[25] = test system: Bacillus anthracis Sterne 34F2
[26] = test system: Candida parapsilosis ATCC 22019
[27] = test system: Malassezia furfur KCTC 7744
[28] = test system: Candida albicans ATCC 90028
[29] = test system: Trichosporon beigelii KCTC 7707
[30] = test system: Salmonella typhimurium KCTC 2370
[31] = test system: Staphylococcus aureus ATCC 15752
[32] = test system: Saccharomyces cerevisiae ATCC 44774
[33] = test system: Bacillus subtilis KCTC 3038
[34] = test system: Micrococcus luteus ATCC 10240
[35] = test system: Candida albicans ATCC 10231
[36] = test system: Pseudomonas aeruginosa ATCC 27853
[37] = test system: Enterococcus faecalis ATCC 29212
[38] = test system: Cryptococcus neoformans ATCC 34881
[39] = test system: Escherichia coli ATCC 27325

SMILES: CC[C@H](C)[C@H](NC(=O)[C@H](CCCN=C(N)N)NC(=O)[C@@H](NC(=O)[C@@H](NC(=O)[C@@H]1CCCN1C(=O)[C@@H](NC(=O)[C@@H](NC(=O)[C@H](C)NC(=O)[C@@H]1CCCN1C(=O)CNC(=O)[C@H](Cc1ccc(O)cc1)NC(=O)[C@H](CCCCN)NC(=O)[C@H](CCCCN)NC(=O)[C@H](Cc1c[nH]c2ccccc12)NC(=O)[C@H](C)NC(=O)[C@H](CCCN=C(N)N)NC(=O)[C@H](CC(C)C)NC(=O)[C@@H](NC(=O)[C@H](CCCCN)NC(=O)[C@H](CCCN=C(N)N)NC(=O)CNC(=O)[C@H](CC(C)C)NC(=O)[C@H](CO)NC(=O)[C@H](CCCN=C(N)N)NC(=O)[C@H](CC(C)C)NC(=O)CNC(=O)CN)[C@@H](C)CC)[C@@H](C)CC)C(C)C)[C@@H](C)CC)[C@@H](C)CC)C(N)=O [GGLRSLGRKILRAWKKYGPAIVPIIRI]
MIC [6]: 2.7 µM (≈ 8.19 µg/mL)
MIC [7]: 3.8 µM (≈ 11.5 µg/mL)
MIC [8]: 2.5 µM (≈ 7.58 µg/mL)
MIC [9]: 1.7 µM (≈ 5.15 µg/mL)

SMILES: NCCCC[C@H](NC(=O)[C@H](CCCN=C(N)N)NC(=O)[C@H](CCCN=C(N)N)NC(=O)[C@H](CCCN=C(N)N)NC(=O)[C@@H]1CCCN1)C(=O)O [PRRRK]
MIC [16]: ≥ 500 µM
MIC [17]: ≥ 500 µM

SMILES: CC[C@H](C)[C@H](NC(=O)[C@H](CCC(=O)O)NC(=O)[C@H](CC(N)=O)NC(=O)[C@H](CC(C)C)NC(=O)[C@H](C)NC(=O)[C@H](CCCCN)NC(=O)[C@@H](N)CCC(N)=O)C(=O)N[C@@H](CC(N)=O)C(=O)N[C@@H](CCC(N)=O)C(=O)N[C@@H](Cc1ccccc1)C(N)=O [QKALNEINQF]
MIC [18]: ≥ 50 µM
MIC [19]: ≥ 50 µM
MIC [20]: ≥ 50 µM
MIC [21]: ≥ 50 µM
MIC [22]: ≥ 50 µM
MIC [23]: ≥ 50 µM

SMILES: CC(=O)N[C@@H](CCCN=C(N)N)C(=O)NCC(=O)N[C@@H](CCCN=C(N)N)C(=O)NCC(=O)N[C@@H](CCCCN)C(=O)N[C@@H](CCC(N)=O)C(=O)NCC(=O)NCC(=O)N[C@@H](CCCCN)C(=O)N[C@H](C(=O)N[C@@H](CCCN=C(N)N)C(=O)N[C@@H](C)C(=O)N[C@@H](CCCCN)C(=O)N[C@@H](C)C(=O)N[C@@H](CCCCN)C(=O)N[C@H](C(=O)N[C@@H](CCCN=C(N)N)C(=O)N[C@@H](CO)C(=O)N[C@@H](CO)C(N)=O)[C@@H](C)O)C(C)C [RGRGKQGGKVRAKAKTRSS]
MIC (Escherichia coli K91BK): ≥ 100 µM
MIC [24]: ≥ 100 µM
MIC [25]: ≥ 100 µM

Further lines, results first:

MIC [1]: ≥ 102 µM
MIC [2]: > 102 µM
MIC [3]: ≥ 102 µM
MIC [4]: ≥ 102 µM
MIC [5]: ≥ 102 µM
SMILES: CC[C@H](C)[C@H](NC(=O)[C@H](CCC(N)=O)NC(=O)[C@H](CCC(=O)O)NC(=O)[C@H](CCC(=O)O)NC(=O)[C@H](CCCCN)NC(=O)[C@@H]1CCCN1C(=O)[C@H](CC(C)C)NC(=O)[C@H](C)NC(=O)[C@H](CO)NC(=O)[C@H](CC(C)C)NC(=O)[C@@H](NC(=O)[C@H](C)N)C(C)C)C(=O)NCC(=O)N[C@@H](CCCCN)C(=O)N[C@@H](C)C(=O)N[C@@H](CO)C(=O)N[C@H](C(=O)N[C@@H](CCCN=C(N)N)C(=O)NCC(=O)N[C@@H](CCCN=C(N)N)C(=O)N[C@@H](CCCCN)C(=O)N[C@@H](C)C(=O)N[C@@H](C)C(=O)N[C@@H](CCCN=C(N)N)C(=O)N[C@@H](CCCN=C(N)N)C(=O)N[C@@H](CCCCN)C(=O)N[C@@H](CCCCN)C(=O)O)[C@@H](C)O [AVLSALPKEEQIGKASTRGRKAARRKK]

MIC [10]: 14.7 µM (≈ 20 µg/mL)
MIC [11]: 29.4 µM (≈ 40 µg/mL)
MIC [12]: 1.84 µM (≈ 2.5 µg/mL)
MIC (Alternaria alternata): ≥ 73.4 µM
MIC [13]: 7.34 µM (≈ 9.99 µg/mL)
MIC [14]: 29.4 µM (≈ 40 µg/mL)
MIC (Cladosporium herbarum): 14.7 µM (≈ 20 µg/mL)
MIC [15]: 29.4 µM (≈ 40 µg/mL)
MIC (Botrytis cinerea): ≥ 73.4 µM
SMILES: CC(C)C[C@H](NC(=O)[C@H](C)NC(=O)[C@H](CCCCN)NC(=O)[C@@H](N)CC(C)C)C(=O)N[C@@H](CCCN=C(N)N)C(=O)N[C@@H](CCCCN)C(=O)N[C@@H](C)C(=O)N[C@@H](CC(C)C)C(=O)N[C@@H](CCCCN)C(=O)N[C@@H](Cc1cnc[nH]1)C(=O)N[C@@H](CC(C)C)C(=O)N[C@@H](C)C(N)=O [LKALRKALKHLA]

MIC [26]: 10 µM (≈ 27.6 µg/mL)
MIC [27]: 14.1 µM (≈ 39 µg/mL)
MIC [28]: 10 µM (≈ 27.6 µg/mL)
MIC [29]: 20 µM (≈ 55.1 µg/mL)
SMILES: CC[C@H](C)[C@H](NC(=O)[C@H](C)NC(=O)[C@H](CCCCN)NC(=O)[C@H](CCCN=C(N)N)NC(=O)[C@H](CS)NC(=O)[C@H](CCCN=C(N)N)NC(=O)[C@H](CCCCN)NC(=O)[C@@H](NC(=O)[C@H](CC(N)=O)NC(=O)[C@H](CCCN=C(N)N)NC(=O)[C@H](CCC(=O)O)NC(=O)[C@H](CS)NC(=O)[C@H](CO)NC(=O)[C@@H](NC(=O)[C@H](CCCCN)NC(=O)[C@H](Cc1cnc[nH]1)NC(=O)[C@H](CC(N)=O)NC(=O)CNC(=O)[C@H](CC(C)C)NC(=O)[C@H](CCCCN)NC(=O)[C@H](CCCCN)NC(=O)[C@H](CCSC)NC(=O)[C@@H](N)CCCN=C(N)N)C(C)C)[C@@H](C)O)C(=O)O [RMKKLGNHKVSCERNTKRCRKAI]

MIC [30]: ≥ 36.6 µM
MIC [31]: ≥ 36.6 µM
MIC [32]: ≥ 36.6 µM
MIC [33]: ≥ 36.6 µM
MIC [34]: ≥ 36.6 µM
MIC [35]: > 36.6 µM
MIC [36]: > 36.6 µM
MIC [37]: > 36.6 µM
MIC [38]: ≥ 36.6 µM
MIC [39]: ≥ 36.6 µM
SMILES: CC(C)[C@H](NC(=O)CNC(=O)[C@H](CCC(N)=O)NC(=O)[C@@H](NC(=O)[C@@H](NC(=O)[C@@H]1CCCN1C(=O)[C@H](CCCN=C(N)N)NC(=O)[C@@H](NC(=O)[C@@H](NC(=O)[C@@H](N)CCCN=C(N)N)C(C)C)C(C)C)C(C)C)C(C)C)C(=O)N[C@@H](CCCCN)C(=O)N[C@@H](CCC(=O)O)C(=O)N[C@@H](CCCCN)C(=O)N[C@H](C(=O)N[C@@H](CCCN=C(N)N)C(=O)O)C(C)C [RVVRPVVQGVKEKVR]
